Laboratory results: the NIST ThermoML archive (doi:10.1021/je200589f)
Numbers after ± are expanded uncertainties.

Experiments:
[1] = refractive index (Na D-line) (dimensionless); conditions: 101.33 kPa, Liquid, Standard Abbe refractometry
[2] = for viscosity / mass density: 101.33 kPa, Liquid; for surface tension liquid-gas: Pendant drop shape; for mass density: Vibrating tube method

Row | Compound | refractive index ([1]; 293.15 K) | refractive index ([1]; 298.15 K) | refractive index ([1]; 303.15 K) | refractive index ([1]; 308.15 K) | refractive index ([1]; 313.15 K) | refractive index ([1]; 318.15 K) | refractive index ([1]; 323.15 K) | refractive index ([1]; 328.15 K) | refractive index ([1]; 333.15 K) | viscosity ([2]; 293.15 K) [mPa·s] | surface tension liquid-gas ([2]; 298.15 K) [mN/m] | viscosity ([2]; 298.15 K) [mPa·s] | surface tension liquid-gas ([2]; 303.15 K) [mN/m] | viscosity ([2]; 303.15 K) [mPa·s] | mass density ([2]; 303.15 K) [kg/m3] | surface tension liquid-gas ([2]; 308.15 K) [mN/m] | viscosity ([2]; 308.15 K) [mPa·s] | mass density ([2]; 308.15 K) [kg/m3] | surface tension liquid-gas ([2]; 313.15 K) [mN/m] | viscosity ([2]; 313.15 K) [mPa·s] | other results
1 | OCCCCCCn1cc[nH+]c1.[Cl-] [1-(6-hydroxyhexyl)imidazolium chloride] | 1.5093 ± 0.0005 | 1.508 ± 0.0005 | 1.5067 ± 0.0005 | 1.5054 ± 0.0005 | 1.5041 ± 0.0005 | 1.5028 ± 0.0005 | 1.5015 ± 0.0005 | 1.5002 ± 0.0005 | 1.4989 ± 0.0005 | 587.2 ± 59 | 51.25 ± 0.78 | 420 ± 36 | 50.05 ± 0.77 | 320.1 ± 24 | 1136.59 ± 1.1 | 48.85 ± 0.76 | 245.6 ± 16 | 1133.52 ± 1.1 | 47.75 ± 0.75 | 180.5 ± 9.6 | mass density ([2]; 313.15 K): 1130.53 ± 1.1 kg/m3; surface tension liquid-gas ([2]; 318.15 K): 46.4 ± 0.73 mN/m; viscosity ([2]; 318.15 K): 140.6 ± 6.1 mPa·s; mass density ([2]; 318.15 K): 1127.58 ± 1.1 kg/m3; surface tension liquid-gas ([2]; 323.15 K): 44.95 ± 0.72 mN/m; viscosity ([2]; 323.15 K): 110.4 ± 3.7 mPa·s; mass density ([2]; 323.15 K): 1124.63 ± 1.1 kg/m3; viscosity ([2]; 328.15 K): 91.4 ± 2.4 mPa·s; mass density ([2]; 328.15 K): 1121.67 ± 1.1 kg/m3; viscosity ([2]; 333.15 K): 72.6 ± 1.4 mPa·s; mass density ([2]; 333.15 K): 1118.72 ± 1.1 kg/m3; viscosity ([2]; 338.15 K): 60.7 ± 1 mPa·s; mass density ([2]; 338.15 K): 1115.77 ± 1.1 kg/m3; viscosity ([2]; 343.15 K): 48.9 ± 0.8 mPa·s; mass density ([2]; 343.15 K): 1112.84 ± 1.1 kg/m3; viscosity ([2]; 348.15 K): 41.3 ± 0.7 mPa·s; mass density ([2]; 348.15 K): 1109.92 ± 1.1 kg/m3; viscosity ([2]; 353.15 K): 35 ± 0.6 mPa·s; mass density ([2]; 353.15 K): 1107.03 ± 1.1 kg/m3
2 | CCCCn1cc[n+](CCCCCCO)c1.[Cl-] [1-butyl-3-(6-hydroxyhexyl)-1H-imidazolium chloride] | 1.5132 ± 0.0005 | 1.5119 ± 0.0005 | 1.5106 ± 0.0005 | 1.5093 ± 0.0005 | 1.508 ± 0.0005 | 1.5067 ± 0.0005 | 1.5054 ± 0.0005 | 1.5041 ± 0.0005 | 1.5028 ± 0.0005 | 1489.7 ± 200 | 32.05 ± 0.59 | 983.3 ± 120 | 30.8 ± 0.58 | 707 ± 76 | 1063.33 ± 0.97 | 29.65 ± 0.57 | 515.8 ± 49 | 1060.6 ± 0.96 | 28.35 ± 0.56 | 360.3 ± 29 | mass density ([2]; 313.15 K): 1057.85 ± 0.96 kg/m3; surface tension liquid-gas ([2]; 318.15 K): 27.3 ± 0.55 mN/m; viscosity ([2]; 318.15 K): 271.5 ± 19 mPa·s; mass density ([2]; 318.15 K): 1055.25 ± 0.95 kg/m3; surface tension liquid-gas ([2]; 323.15 K): 25.9 ± 0.54 mN/m; viscosity ([2]; 323.15 K): 207.7 ± 12 mPa·s; mass density ([2]; 323.15 K): 1052.52 ± 0.95 kg/m3; viscosity ([2]; 328.15 K): 169.4 ± 8.6 mPa·s; mass density ([2]; 328.15 K): 1049.89 ± 0.94 kg/m3; viscosity ([2]; 333.15 K): 133 ± 5.5 mPa·s; mass density ([2]; 333.15 K): 1047.18 ± 0.93 kg/m3; viscosity ([2]; 338.15 K): 110.8 ± 3.8 mPa·s; mass density ([2]; 338.15 K): 1044.46 ± 0.93 kg/m3; viscosity ([2]; 343.15 K): 89.4 ± 2.3 mPa·s; mass density ([2]; 343.15 K): 1041.73 ± 0.92 kg/m3; viscosity ([2]; 348.15 K): 76.1 ± 1.6 mPa·s; mass density ([2]; 348.15 K): 1039.05 ± 0.92 kg/m3; viscosity ([2]; 353.15 K): 65.3 ± 1.1 mPa·s; mass density ([2]; 353.15 K): 1036.32 ± 0.91 kg/m3
3 | CCn1cc[n+](CCCCCCO)c1.[Cl-] [1-ethyl-3-(6-hydroxyhexyl)-1H-imidazolium chloride] | 1.5115 ± 0.0005 | 1.5102 ± 0.0005 | 1.5089 ± 0.0005 | 1.5076 ± 0.0005 | 1.5063 ± 0.0005 | 1.505 ± 0.0005 | 1.5037 ± 0.0005 | 1.5024 ± 0.0005 | 1.5011 ± 0.0005 | 1348.1 ± 180 | 42.32 ± 0.69 | 861.7 ± 100 | 41.3 ± 0.68 | 604.5 ± 61 | 1101.74 ± 1.1 | 39.95 ± 0.67 | 431.3 ± 38 | 1098.91 ± 1 | 38.75 ± 0.66 | 294 ± 21 | mass density ([2]; 313.15 K): 1096.23 ± 1 kg/m3; surface tension liquid-gas ([2]; 318.15 K): 37.4 ± 0.64 mN/m; viscosity ([2]; 318.15 K): 217.7 ± 13 mPa·s; mass density ([2]; 318.15 K): 1093.53 ± 1 kg/m3; surface tension liquid-gas ([2]; 323.15 K): 36.25 ± 0.63 mN/m; viscosity ([2]; 323.15 K): 163.9 ± 8.1 mPa·s; mass density ([2]; 323.15 K): 1090.95 ± 1 kg/m3; viscosity ([2]; 328.15 K): 132.2 ± 5.4 mPa·s; mass density ([2]; 328.15 K): 1088.27 ± 1 kg/m3; viscosity ([2]; 333.15 K): 102.6 ± 3.2 mPa·s; mass density ([2]; 333.15 K): 1085.63 ± 1 kg/m3; viscosity ([2]; 338.15 K): 84.7 ± 2.1 mPa·s; mass density ([2]; 338.15 K): 1083.07 ± 1 kg/m3; viscosity ([2]; 343.15 K): 67.8 ± 1.2 mPa·s; mass density ([2]; 343.15 K): 1080.43 ± 1 kg/m3; viscosity ([2]; 348.15 K): 57.4 ± 0.9 mPa·s; mass density ([2]; 348.15 K): 1077.84 ± 1 kg/m3; viscosity ([2]; 353.15 K): 49.1 ± 0.8 mPa·s; mass density ([2]; 353.15 K): 1075.27 ± 0.99 kg/m3
4 | Cn1cc[n+](CCCCCCO)c1.[Cl-] [3-(6-hydroxyhexyl)-1-methylimidazolium chloride] | 1.5106 ± 0.0005 | 1.5093 ± 0.0005 | 1.508 ± 0.0005 | 1.5067 ± 0.0005 | 1.5054 ± 0.0005 | 1.5041 ± 0.0005 | 1.5028 ± 0.0005 | 1.5015 ± 0.0005 | 1.5002 ± 0.0005 | 1025.9 ± 130 | 49.95 ± 0.77 | 679.8 ± 72 | 48.75 ± 0.76 | 489.7 ± 46 | 1119.49 ± 1.1 | 47.75 ± 0.75 | 357.6 ± 29 | 1116.65 ± 1.1 | 46.65 ± 0.73 | 249.7 ± 16 | mass density ([2]; 313.15 K): 1113.91 ± 1.1 kg/m3; surface tension liquid-gas ([2]; 318.15 K): 45.35 ± 0.72 mN/m; viscosity ([2]; 318.15 K): 188 ± 10 mPa·s; mass density ([2]; 318.15 K): 1111.28 ± 1.1 kg/m3; surface tension liquid-gas ([2]; 323.15 K): 43.95 ± 0.71 mN/m; viscosity ([2]; 323.15 K): 143.4 ± 6.3 mPa·s; mass density ([2]; 323.15 K): 1108.63 ± 1.1 kg/m3; viscosity ([2]; 328.15 K): 116.6 ± 4.2 mPa·s; mass density ([2]; 328.15 K): 1105.92 ± 1.1 kg/m3; viscosity ([2]; 333.15 K): 91.2 ± 2.4 mPa·s; mass density ([2]; 333.15 K): 1103.4 ± 1.1 kg/m3; viscosity ([2]; 338.15 K): 75.7 ± 1.6 mPa·s; mass density ([2]; 338.15 K): 1100.78 ± 1 kg/m3; viscosity ([2]; 343.15 K): 60.6 ± 1 mPa·s; mass density ([2]; 343.15 K): 1098.14 ± 1 kg/m3; viscosity ([2]; 348.15 K): 51.3 ± 0.7 mPa·s; mass density ([2]; 348.15 K): 1095.59 ± 1 kg/m3; viscosity ([2]; 353.15 K): 43.8 ± 0.7 mPa·s; mass density ([2]; 353.15 K): 1092.92 ± 1 kg/m3
